Experimental data reported in patent US20250268801A1, “DRY CREAMS AND TOPICAL DELIVERY SYSTEMS” (UEA Enterprises Limited, priority 2021, published 2025).
In brackets after ≈: the same amount, converted by molar mass.

Columns and labels:
[1] = cited from earlier work
[2] = Drug solubility in loading solvent; format: physicochemical; conditions: sunflower oil, oil or lipid
Method: The maximum amount of metoprolol which can dissolve in the volume of ethanol in a 10% solution was precisely weighed out and dissolved in the ethanol—DCM in the HPMCAS-PVP polymer solution before it was electrospun. When coumarin (hydrophobic fluorescent dye) was added, the voltage was increased to 19.1 kv. […] Ketoconazole was dissolved in sunflower oil.

solubility [2] [µg/mL]	Structure (SMILES)	solubility in ethanol [1] [µg/mL]
	COCCc1ccc(OCC(O)CNC(C)C)cc1 (centres unmarked) [Metoprolol]	31000 (≈ 116 mM)
~5800 (≈ 10.9 mM)	CC(=O)N1CCN(c2ccc(OCC3COC(Cn4ccnc4)(c4ccc(Cl)cc4Cl)O3)cc2)CC1 (centres unmarked) [Ketoconazole]	
